Patent US8916711B2, “Imidazothiazole-chalcone derivatives as potential anticancer agents and process for the preparation thereof” (Council of Scientific and Industrial Research, priority 2009, dated 2014)

How the values were obtained:
MCF7 = experiment: NCI in vitro cytotoxicity (SRB, 48 h), Breast panel; assay type: cell-based; settings: Homo sapiens, MCF7; MCF-7; Table 4; read-out: Comparative efficacy
Description: (§1) The imidazothiazole-chalcone hybrids 7a, 7e, 7f, 8f and 19e have been tested against sixty human tumour cell lines derived from nine cancer types (leukemia, non-small cell lung cancer, colon cancer, CNS cancer, melanoma, ovarian cancer, renal cancer, prostate cancer and breast cancer) as per NCI protocol. For each compound, dose response curves for individual cell lines have been measured at a minimum of five concentrations at 10 fold dilutions. A protocol of 48 h continuous drug exposure has been used, and a sulforhodamine B (SRB) protein assay was used to estimate cell viability or growth. The concentration for 50% cell growth inhibition (GI50), total cell growth inhibition (TGI, 0% growth) and 50% cell death (LC50, […]) compared with the control has been calculated (Table-1).

MDA-MB-231/ATCC = experiment: as above; assay type: cell-based; settings: Homo sapiens, Table 4, read-out: Comparative efficacy
Description: as §1

SR = experiment: NCI in vitro cytotoxicity (SRB, 48 h), Leukemia panel; assay type: cell-based; settings: Homo sapiens
Description: as §1

SMILES	melting point [°C]	other results
C1=Nc2c3c(ccc2=N1)=NCS3 [C, imidazobenzothiazole, reference compound]	–	IC50 (MCF7): 32.5 µM; IC50 (MDA-MB-231/ATCC): 43.2 µM
COc1ccc(C(=O)/C=C/c2c(-c3ccc(F)cc3)nc3sccn23)cc1OC [Compound 8e, (E)-1-(3,4-dimethoxyphenyl)-3-(6-(4-fluorophenyl)imidazo[2,1-b]thiazol-5-yl)prop-2-en-1-one]	221 to 223	–
Cc1ccc(C(=O)/C=C/c2c(-c3ccc(F)cc3)nc3sccn23)cc1C [Compound 9e, (E)-1-(3,4-dimethylphenyl)-3-(6-(4-fluorophenyl)imidazo[2,1-b]thiazol-5-yl)prop-2-en-1-one]	210 to 213	–
COc1ccc(-c2nc3sccn3c2/C=C/C(=O)c2ccc3c(c2)OCO3)cc1 [Compound 11a, (E)-1-(benzo[d][1,3]dioxol-5-yl)-3-(6-(4-methoxyphenyl)imidazo[2,1-b]thiazol-5-yl)prop-2-en-1-one]	189 to 191	–
O=C(/C=C/c1c(-c2ccc(F)cc2)nc2sccn12)c1ccc2ccccc2c1 [Compound 12e, (E)-3-(6-(4-fluorophenyl)imidazo[2,1-b]thiazol-5-yl)-1-(naphthalen-2-yl)prop-2-en-1-one]	216 to 218	–
O=C(/C=C/c1c(-c2ccc(F)cc2)nc2sccn12)c1ccc(-c2ccccc2)cc1 [Compound 13e, (E)-1-(biphenyl-4-yl)-3-(6-(4-fluorophenyl)imidazo[2,1-b]thiazol-5-yl)prop-2-en-1-one]	194 to 196	–
COc1ccc(-c2nc3sccn3c2/C=C/C(=O)c2cccs2)cc1 [Compound 16a, (E)-3-(6-(4-methoxyphenyl)imidazo[2,1-b]thiazol-5-yl)-1-(thiophen-2-yl)prop-2-en-1-one]	169 to 172	–
COc1ccc(-c2nc3sccn3c2/C=C/C(=O)c2ccc[nH]2)cc1 [Compound 17a, (E)-3-(6-(4-methoxyphenyl)imidazo[2,1-b]thiazol-5-yl)-1-(1H-pyrrol-2-yl)prop-2-en-1-one]	177 to 179	–
COc1cc(C(=O)/C=C/c2c(C(F)(F)F)nc3sc(C)cn23)cc(OC)c1OC [Compound 19f, (E)-3-(2-methyl-6-(trifluoromethyl)imidazo[2,1-b]thiazol-5-yl)-1-(3,4,5-trimethoxyphenyl)prop-2-en-1-one]	–	GI50 (SR): 0.8 µM
